Data taken from patent publication US20250066370A1, “BICYCLIC TRIAZINE DERIVATIVES FOR THE TREATMENT OF CANCER” (DEUTSCHES KREBSFORSCHUNGSZENTRUM, priority 2022, published 2025).

What was measured:
[1] = system: MDA-MB-231, human breast cancer cells; test: Proliferation assay MDA-MB-231 (crystal violet); type: cell-based; settings: 96 h, MDA-MB-231 parental cells, 4 days, median, read-out: Prolif-MDA MB-231, IC50 - [mol/l] (median)
Procedure: (§1) Human tumour cells were originally obtained from the American Type Culture Collection (ATCC), or from the Deutsche Sammlung von Mikroorganismen und Zellkulturen (DSMZ, German Collection of Microorganisms and Cell Cultures). Cultivated tumour cells (CAL-120, human breast adenocarcinoma cells, DSMZ ACC-459; MDA-MB-231, human breast cancer cells, ATCC HTB-26) were plated at a density of 4,000 cells/well in a 96-well multitier plate in 200 microL of their respective growth medium supplemented 10% fetal calf serum. After 24 hours, the cells of one plate (zero-point plate) were stained with crystal violet (see below), while the medium of the other plates was supplemented with the test substances in various concentrations (0 micromol/L, as well as in the range of 0.01-10 micromol/L; the final concentration of the solvent dimethyl sulfoxide was adjusted to 0.1%) using a Tecan HP D300 Digital Dispenser. The cells were incubated for 4 days in the presence of test substances. Cell proliferation was determined by staining the cells with crystal violet: the cells were fixed by adding 20 microL/measuring point of an 11% glutaric aldehyde solution for 15 minutes at room temperature. After three washing cycles of the fixed cells with water, the plates were dried at room temperature. The cells were stained by adding 100 microL/measuring point of a 0.1% crystal violet solution (pH 3.0). After three washing cycles of the stained cells with water, the plates were dried at room temperature. The dye was dissolved by adding 100 microL/measuring point of a 10% acetic acid solution. The extinction was determined by photometry at a wavelength of 595 nm. The change of cell number, in percent, was calculated by normalization of the measured values to the extinction values of the zero-point plate (=0%) and the extinction of the untreated (0 μM) cells (=100%). The IC50 values (inhibitory concentration at 50% of maximal effect) were determined by means of a 4 parameter fit.

[2] = system: BRCA1 mRNA expression in MDA-MB-231 cells; test: qRT-PCR assay: inhibition of BRCA1 mRNA expression in MDA-MB-231 cells; type: cell-based; settings: Homo sapiens, 24 h exposure, BRCA1 normalised to GAPDH, median, read-out: RTqPCR-MDA-MB-231, IC50 [mol/l], BRCA1 (median)
Procedure: 3. qRT-PCR Assay: BRCA1, ATR, MCL1 in MDA-MB-231, CAL-120
Tissue cultured human MDA-MB-231 human breast cancer cells were plated in 500 microL per well at 200,000 cells/well in a 24 well microtiter plate. After 24 h, the cells were exposed continuously for 24 h to test substances (substances were added with Tecan HP D300 Dispenser). RNA was prepared using Qiagen RNeasy MiniKit (#74106), RNA was quantified using a NanoDrop Equipment, and 600 nano grams of RNA was converted to cDNA using a SuperScript VILO kit (Thermofisher #11755050) followed by qPCR amplification. BRCA1 and ATR gene expression was measured by RT-qPCR and normalised to GAPDH housekeeping gene expression. qPCR primer sets have been purchased from Thermo Fisher Scientific/Applied Biosystems: BRCA1, #Hs 01556193; ATR. #Hs 00992123: GAPDH. #Hs 03929097.

[3] = system: CAL-120, human breast adenocarcinoma cells; test: Proliferation assay CAL-120 (crystal violet); type: cell-based; settings: 96 h, CAL-120 parental cells, 4 days, median, read-out: Prolif-CAL-120, IC50 - [mol/l] (median)
Procedure: as §1

CDK12 = CDK12 (Homo sapiens (Human), UniProt Q9NYV4); test: CDK12 nuclear protein level: immunofluorescence/high content analysis in CAL-120 cells; type: cell-based; settings: 24 h, nuclear CDK12 staining intensity, median, read-out: CDK12 degradation IF, DC50 - [mol/l] (median)
Sequence of CDK12 (Q9NYV4 whole entry): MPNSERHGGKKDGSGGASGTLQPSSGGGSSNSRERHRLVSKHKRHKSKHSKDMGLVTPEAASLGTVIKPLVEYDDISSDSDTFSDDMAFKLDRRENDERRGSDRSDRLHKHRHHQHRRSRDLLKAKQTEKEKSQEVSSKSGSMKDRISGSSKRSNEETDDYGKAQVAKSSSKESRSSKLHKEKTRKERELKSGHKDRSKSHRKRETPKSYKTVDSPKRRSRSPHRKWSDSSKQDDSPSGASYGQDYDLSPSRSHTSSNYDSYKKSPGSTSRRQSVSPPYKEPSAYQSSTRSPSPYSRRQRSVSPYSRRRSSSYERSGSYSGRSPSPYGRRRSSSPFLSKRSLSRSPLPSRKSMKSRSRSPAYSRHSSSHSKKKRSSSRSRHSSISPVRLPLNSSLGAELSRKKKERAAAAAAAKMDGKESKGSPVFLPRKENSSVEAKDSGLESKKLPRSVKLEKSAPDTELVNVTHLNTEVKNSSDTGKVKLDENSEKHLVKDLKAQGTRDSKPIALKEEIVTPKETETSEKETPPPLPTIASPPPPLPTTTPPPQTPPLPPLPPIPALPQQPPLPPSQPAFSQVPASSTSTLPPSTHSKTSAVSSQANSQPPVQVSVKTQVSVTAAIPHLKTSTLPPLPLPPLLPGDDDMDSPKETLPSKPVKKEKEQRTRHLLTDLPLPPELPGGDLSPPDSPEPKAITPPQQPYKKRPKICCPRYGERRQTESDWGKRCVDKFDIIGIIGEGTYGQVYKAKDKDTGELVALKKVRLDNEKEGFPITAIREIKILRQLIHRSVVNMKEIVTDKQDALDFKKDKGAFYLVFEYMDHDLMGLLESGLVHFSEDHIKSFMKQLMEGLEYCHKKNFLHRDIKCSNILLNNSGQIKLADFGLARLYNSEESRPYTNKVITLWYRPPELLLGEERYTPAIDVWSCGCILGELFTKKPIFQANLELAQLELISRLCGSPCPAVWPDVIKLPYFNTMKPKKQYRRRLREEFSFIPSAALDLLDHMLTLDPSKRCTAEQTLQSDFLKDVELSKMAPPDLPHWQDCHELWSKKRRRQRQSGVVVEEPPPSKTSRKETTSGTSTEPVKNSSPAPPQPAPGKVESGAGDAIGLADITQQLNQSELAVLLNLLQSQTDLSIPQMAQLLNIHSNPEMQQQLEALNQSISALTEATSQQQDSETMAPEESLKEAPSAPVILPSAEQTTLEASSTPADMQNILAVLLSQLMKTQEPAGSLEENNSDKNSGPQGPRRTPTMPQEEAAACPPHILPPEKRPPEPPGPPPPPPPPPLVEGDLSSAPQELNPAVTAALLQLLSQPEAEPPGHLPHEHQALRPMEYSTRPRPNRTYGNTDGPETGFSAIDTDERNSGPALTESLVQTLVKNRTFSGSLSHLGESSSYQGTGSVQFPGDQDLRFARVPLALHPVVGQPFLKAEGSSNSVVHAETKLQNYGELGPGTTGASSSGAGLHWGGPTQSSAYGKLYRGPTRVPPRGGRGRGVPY
Sequence of CDK12 (O75909 whole entry partner): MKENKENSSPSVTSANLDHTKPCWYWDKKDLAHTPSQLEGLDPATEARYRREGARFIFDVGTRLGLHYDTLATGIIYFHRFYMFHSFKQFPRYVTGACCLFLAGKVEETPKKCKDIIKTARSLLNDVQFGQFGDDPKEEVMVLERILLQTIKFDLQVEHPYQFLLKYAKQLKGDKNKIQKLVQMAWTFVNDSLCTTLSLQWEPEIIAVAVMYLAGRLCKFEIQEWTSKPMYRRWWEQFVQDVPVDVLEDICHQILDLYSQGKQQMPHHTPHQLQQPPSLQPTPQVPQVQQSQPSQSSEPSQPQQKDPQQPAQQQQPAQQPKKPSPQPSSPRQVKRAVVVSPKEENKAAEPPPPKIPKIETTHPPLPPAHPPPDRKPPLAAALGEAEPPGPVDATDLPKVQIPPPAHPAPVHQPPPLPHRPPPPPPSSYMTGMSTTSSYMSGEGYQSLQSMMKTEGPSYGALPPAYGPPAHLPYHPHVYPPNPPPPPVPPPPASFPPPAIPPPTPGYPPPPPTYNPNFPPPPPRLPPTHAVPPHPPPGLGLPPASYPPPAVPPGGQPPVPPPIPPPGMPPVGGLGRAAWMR
Procedure: In the context of the present invention, the term “DC50 CDK12” refers to the DC50 values obtained according to the assay described in this section (7) herein below, i.e. the DC50 values for the degradation of CDK12.
(§2) CAL-120 human breast cancer cells (DSMZ ACC 459) are seeded in 1536-well microtiter plates (800 cells per well) containing 50 nanoL of compounds in Dose-Response. Control wells received DMSO or Example 4. Plates are then incubated for 24 h at 37° C. in an humidified incubator and fixed with 4% PFA for 10 min. Then immunofluorescence (IF) against CDK12 (CellSignalling CDK12 Antibody #11973, rabbit, 1:100 dilution) is performed using standard IF protocols. Cells are then stained with Hoechst 33342 (Life Technologies, H-1399, 0.1 microg/ml) and imaged on an automated confocal microscopy system (e.g. Perkin Elmer Opera Phenix). Nuclear and cytoplasmic intensity as well as the nuclear/cytoplasmic intensity ratio is determined by automated image analysis using custom generated scripts (MetaXpress). Data is then transferred to Genedata Screener software, normalized to DMSO and control and DC50 values (degrading concentration to achieve 50% reduction of nuclear CDK12 staining intensity relative to controls) are reported.

MDA-MB-231-CDK12d-res = test: Proliferation assay CDK12 degrader resistant MDA-MB-231; type: cell-based, human
Source text: (§3) CDK12-degrader resistant cells were generated by propagation of CAL-120 human breast adenocarcinoma cells (DSMZ ACC-459) and MDA-MB-231 human breast cancer cells (ATCC HTB-26) in presence of increasing concentrations of the CDK12 degrader compound example 4 from WO 2021/116178. Initial concentrations of example 4 were 2.0E-08 M for CAL-120 cells and 4.6E-08 M for MDA-MB-231 cells, corresponding to ca. 2-fold the IC50 of inhibition of the cells in an proliferation assay. After the treated cells recovered and proliferated again the concentration of compound example 4 was increased to 3-fold IC50.
as §1, with “To determine the inhibitory effect of test compounds on proliferation of CAL-120-CDK12d-res, MDA-MB-231-CDK12d-res the” for “Human tumour”, “cells” for “cells were originally obtained from the American Type Culture Collection (ATCC), or from the Deutsche Sammlung von Mikroorganismen und Zellkulturen (DSMZ, German Collection of Microorganisms and Cell Cultures). Cultivated tumour cells (CAL-120, human breast adenocarcinoma cells, DSMZ ACC-459; MDA-MB-231, human breast cancer cells, ATCC HTB-26)”

CYCLIN K = CYCLIN K nuclear protein level: immunofluorescence/high content analysis in CAL-120 cells; type: cell-based, human; settings: 24 h, nuclear CCNK staining intensity, median, read-out: CYCLIN K degradation IF, DC50 - [mol/l] (median)
Procedure: as §2, with “CYCLIN K (ThermoFisher Scientific CCNK” for “CDK12 (CellSignalling CDK12”, “#PA5-85020,” for “#11973,”, “1:200” for “1:100”, “CCNK” for “CDK12”

CAL-120-CDK12d-res = test: Proliferation assay CDK12 degrader resistant CAL-120; type: cell-based, human
Source text: as §3
as §1, with “To determine the inhibitory effect of test compounds on proliferation of CAL-120-CDK12d-res, MDA-MB-231-CDK12d-res the” for “Human tumour”, “cells” for “cells were originally obtained from the American Type Culture Collection (ATCC), or from the Deutsche Sammlung von Mikroorganismen und Zellkulturen (DSMZ, German Collection of Microorganisms and Cell Cultures). Cultivated tumour cells (CAL-120, human breast adenocarcinoma cells, DSMZ ACC-459; MDA-MB-231, human breast cancer cells, ATCC HTB-26)”

Row | DC50 (CDK12) [nM] | IC50 (MDA-MB-231-CDK12d-res; Homo sapiens, 96 h, CDK12 degrader resistant MDA-MB-231 cells, 4 days, median, read-out: Prolif-MDA MB-231-CDK12d-res, IC50 - [mol/] (median)) [nM] | DC50 (CYCLIN K) [nM] | SMILES | IC50 [1] [nM] | IC50 [2] [nM] | IC50 [3] [nM] | Ratio (Prolif-MDA MB-231-CDK12d-res IC50 / Prolif-MDA MB-231 IC50) (MDA-MB-231-CDK12d-res; resistant versus parental MDA-MB-231 cells) | IC50 (CAL-120-CDK12d-res; Homo sapiens, 96 h, CDK12 degrader resistant CAL-120 cells, 4 days, median, read-out: Prolif-CAL-120-CDK12d-res, IC50 - [mol/l] (median)) [nM] | Ratio (Prolif-CAL-120-CDK12d-res IC50 / Prolif-CAL-120 IC50) (CAL-120-CDK12d-res; resistant versus parental CAL-120 cells)
1 | 120 |  |  | COc1ccc(-c2cnc(CNc3nc(N4CCOCC4)nn4c(C(F)(F)F)cnc34)[nH]2)cc1 [Example 13, N-{[5-(4-methoxyphenyl)-1H-imidazol-2-yl]methyl}-2-(morpholin-4-yl)-7-(trifluoromethyl)imidazo[2,1-f][1,2,4]triazin-4-amine] | 85.9 | 57.1 | 29.2 |  |  | 
2 | > 1000 | 156 | > 1000 | FC(F)(F)Oc1ccc(-c2nnc(CNc3nc(N4CCOCC4)nc4c(C(F)(F)F)cnn34)[nH]2)cn1 [Example 17, 2-(morpholin-4-yl)-N-({5-[6-(trifluoromethoxy)pyridin-3-yl]-4H-1,2,4-triazol-3-yl}methyl)-8-(trifluoromethyl)pyrazolo[1,5-a][1,3,5]triazin-4-amine] | 112 |  | 88.1 | 1.4 | 134 | 1.5
3 | > 1000 |  |  | FC(F)(F)c1ccc(-c2nnc(CNc3nc(N4CCOCC4)nc4c(C(F)(F)F)cnn34)[nH]2)cn1 [Example 16, 2-(morpholin-4-yl)-8-(trifluoromethyl)-N-({5-[6-(trifluoromethyl)pyridin-3-yl]-4H-1,2,4-triazol-3-yl}methyl)pyrazolo[1,5-a][1,3,5]triazin-4-amine] | 179 |  | 211 |  |  | 
